One assay has as its system MDA MB468. The experiment in a line: MTT assay, MDA MB468. The class given is cell-based, human. Here is the method:
Compounds are tested for their ability to inhibit cell proliferation and cell viability. The metabolic conversion of 3-(4,5-dimethylthiazol-2-yl)-2,5-diphenyltetrazolium bromide (MTT, Sigma #M2128) to a reduced form is a commonly used measure of cellular viability. Following is the procedure:
Cells are maintained in 75 cm^2 tissue culture flasks until ready for use. The cells are grown and plated for the assay in Dulbecco's modified Eagle's media (DMEM) containing 10% fetal bovine serum. For example, the following cell lines can be used: a) human foreskin fibroblasts (HFF); b) HT29 (human colon carcinoma cell line); c)MDA-MB-468 (human breast carcinoma cell line); d) RKO (human colon adenocarcinoma cell line); e) SW620 (human colon carcinoma cell line); f) A549 (human lung carcinoma cell line); and g) MIA PACA (human pancreatic carcinoma cell line). Cells are maintained at 37° C. in 10% CO2, 90% humidified air. Cells are plated in 96-well tissue culture plates at the densities listed below. 100 μL of cell suspension is added to each well of the 96-well plate except the top row of the plate which contains no cells and serves as a reference for the spectrophotometer.
Cells are incubated overnight in DMEM containing 10% fetal bovine serum at 37° C. in 10% CO2, 90% humidified air prior to dosing. […] Compounds with solubilities of less than 30 μM are dosed at the highest soluble concentration. Stock solutions of compounds are made in 100% dimethyl sulfoxide (DMSO). Stock solutions are diluted in DMEM containing 100 μg/ml gentamicin and 0.3 to 0.6% DMSO at the twice the highest concentration to be placed on the cells. If compounds have been dissolved in DMSO the final concentration of DMSO on the cells is kept below 0.3%. Three-fold serial dilutions are performed on each compound to prepare 10 concentrations of the compound for dosing. 100 μl of diluted compound is added to the 100 μl of media currently on the dish. For each concentration of compound, 2-4 replicate wells are prepared.
Cells are returned to incubator and allowed to proliferate in the presence of compound for 72 h before addition of MTT. MTT is prepared in phosphate buffered saline (Irvine Scientific #9240) at a concentration of 2 mg/ml. 50 μl per well of MTT solution is added to the 200 μl of media to yield a final concentration of 0.4 mg/ml and plates are returned to the incubator for 4 h. After 4 h incubation the media, compound and MTT mixture is aspirated from the plates and 100 μl of 100% DMSO is added to each well in addition to 25 μl of Sorenson's Buffer (0.1M glycine, 0.1M NaCl, pH 10.5). Quantitation of metabolic reduction of MTT in each plate is performed by reading optical density at 570 nm wavelength on a Molecular Devices UVmax microplate reader. Growth inhibition curves and 50% inhibitory concentrations are determined using Microsoft Excel.
Background: Tetrazolium dyes change colour on reduction, which living cells bring about.

The test system of assay [1] is MES/SA ovarian carcinoma cells. Description: FACS assay (cell death by flow cytometry), MES/SA. It counts as cell-based. Particulars: Homo sapiens, MES-SA, 72 h, read-out: FACS MES/SA IC50. The procedure:
These assays allow determination of both cell death and changes in cell cycle profile in cells following treatment of the compound. The assay is performend as follows:
1. Cells are incubated in DMEM to which 10% FCS has been added in a humidified incubator at 37° C. and 5% by volume of CO2 in air. The cells are innoculated in 6-well plates at a density of 0.5-5×10^5 cells per well.
2. The test compound is added in serial dilutions 24-36 h after plating in 0.5% DMSO. The plates are then incubated a further 72 h in the presence of the compound. During this time, cells in control cultures undergo at least three cell divisions.
3. After incubation, the media is collected and cells are harvested by trypsinization. The cells and media are pooled and pelleted by centrifugation.
4. The cell pellet is fixed in a final volume of 3 mL of 50% ice cold MeOH and incubated for a minimum of 30 min at −20° C.
5. The cells are pelleted by centrifugation and resuspended in 0.5 mL PBS containing 1%FCS, […] Propidium Iodide (PI) and 5 mg/mL RNase A and incubated 30 min at 37° C. in the dark.
6. The samples are analysed by flow cytometry using the relative incorporation of PI as a measure of DNA content of each cell. The % Dead cells is recorded as % of events with less than 2N DNA.
HDF are normal diploid fibroblast cells. RKO are colon adenocarcinoma cells and MES/SA are […].

The next assay deals with VEGFR2 (Homo sapiens, UniProt P35968). The experiment in a line: VEGFR-2 kinase domain peptide phosphorylation Elisa. It counts as biochemical. Here is the method:
The peptide substrate used in the VEGFR-2 assay was biotin-aminohexyl-[…]-NH2. The kinase domain of the enzyme was purified to homogeneity from a baculovirus expression system. The enzyme was preactivated on ice for 15 min in the presence of 100 μM ATP and 20 mM MgCl2, and stored at −80° C. until needed for assay. The activated enzyme was diluted to 0.4 nM into a 60 μl reaction containing 100 mM HEPES, pH 7.5, 5 μM ATP, 10 mM MgCl2, 5 μM peptide, 0.1 mM DTT, 0.05 mg/ml BSA, and an inhibitor at varying concentrations. The controls were reactions in the presence (negative controls) or absence (positive controls) of 50 mM EDTA. Reactions were incubated for 30 min at room temperature, and then quenched by the addition of EDTA to 60 mM in 210 μl. The quenched samples (190 μl) were transferred to a neutravidin-coated plate (Pierce) and incubated at room temperature for 40 min to allow biotinylated peptide to bind to the neutravidin. The unbound components of the reaction were removed by washing with a plate washer, then 200 μl HRP-PY20 anti-phosphotyrosine antibody conjugate was added to each well. After incubation for 40 min, the plate was washed to remove any unbound antibody. A HRP substrate, K-blue (Neogen) was added and the reaction was quenched with Red Stop (Neogen) after 20 min. The absorbance of the wells was read at A650 in a plate reader. IC50 values were obtained by fitting raw data to A650=Vmax*(1−[l]/IC50+[l])))+b, where b is background.

A further assay has as its target Lck (Homo sapiens, UniProt P06239). The experiment in a line: Lck peptide phosphorylation assay (Elisa or isotope based). It counts as biochemical.
The mark [2] stands for this setting: Homo sapiens, MDA-MB-468, 72 h; read-out: MTT MDA MB468 IC50.

Like-named read-outs stand apart in the source and are kept apart here.

Sequence of Lck (P06239 whole entry, species assumed): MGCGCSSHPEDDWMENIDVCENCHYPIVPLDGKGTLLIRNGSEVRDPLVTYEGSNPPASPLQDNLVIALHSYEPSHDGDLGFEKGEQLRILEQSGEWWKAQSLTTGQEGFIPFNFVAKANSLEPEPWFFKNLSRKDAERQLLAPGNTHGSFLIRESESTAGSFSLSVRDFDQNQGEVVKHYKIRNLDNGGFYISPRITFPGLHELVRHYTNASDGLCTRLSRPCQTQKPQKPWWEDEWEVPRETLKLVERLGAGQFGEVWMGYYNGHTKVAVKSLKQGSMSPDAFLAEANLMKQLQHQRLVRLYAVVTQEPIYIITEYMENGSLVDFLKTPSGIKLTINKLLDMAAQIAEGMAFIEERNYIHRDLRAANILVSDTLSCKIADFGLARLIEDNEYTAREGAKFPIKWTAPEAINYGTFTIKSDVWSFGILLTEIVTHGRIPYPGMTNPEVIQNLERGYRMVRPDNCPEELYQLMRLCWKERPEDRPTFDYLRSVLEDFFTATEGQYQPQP
Sequence of VEGFR2 (P35968 834-1162 limits assumed, species assumed): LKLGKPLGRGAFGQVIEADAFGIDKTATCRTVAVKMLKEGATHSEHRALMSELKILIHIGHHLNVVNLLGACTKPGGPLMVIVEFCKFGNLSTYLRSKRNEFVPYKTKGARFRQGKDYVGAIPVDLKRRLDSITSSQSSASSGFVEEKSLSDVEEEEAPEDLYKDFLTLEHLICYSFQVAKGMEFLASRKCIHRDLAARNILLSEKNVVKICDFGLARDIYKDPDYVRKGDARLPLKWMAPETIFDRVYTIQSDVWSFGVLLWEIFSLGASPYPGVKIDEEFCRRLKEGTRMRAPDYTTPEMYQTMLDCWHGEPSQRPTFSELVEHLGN
Protocol for Lck: The src and Ick proteins were purified to homogeneity from a baculovirus expression system and preactivated before adding to assay mixtures. The maximum activation was achieved by incubating concentrated enzyme (10-30 mM) on ice for 40 min in the presence of 1 mM ATP and 10 mM MgCl2 in 100 mM HEPES, pH 7.5. The activated enzyme was diluted to 2 nM into a 50-mL reaction mixture containing 100 mM HEPES, pH 7.5. 5 mM ATP, 10 mM MgCl2, 2 mM peptide, 0.05 mg/mL BSA, and an inhibitor at varying concentrations and with or without 8 mCi/mL [γ-^33P]ATP dependent upon the method of analysis for the extent of reaction. The controls were reactions in the presence (negative controls) or absence (positive controls) of 50 mM EDTA. Reactions were allowed to proceed for 30 min at room temperature and quenched with addition of EDTA to 50 mM in 220 mL. The extent of reactions was analyzed in one of the two ways: an Elisa-based and a radioactive isotope-based. The quenched samples (200 mL) were transferred to a neutravidin coated plate (Perice) and incubated at room temperature for 40 min to allow biotinylated peptide to bind to neutravidin. The unbound peptide and the rest of the solution was washed away using a plate washer. In the Elisa format, a 200 mL HRP-PY20 anti phosphotyrosine antibody conjugate solution was added. After incubation for about 30 min, the plated was washed to remove unbound antibody-HRP conjugate. An Elisa substrate, K-blue (Neogen), was added and the Elisa reaction quenched with Red-stop (Neogen) after 15 min. The plate was read at A625 in a plate reader. In the isotope-based format, the reactions had been performed in the presence of [γ-^33P]ATP. 200 mL Scintiverce DB was added to each well of the plate with bound biotin-peptide. The plate was sealed and counted in a micro-b-counter (Wallac). IC50 values were obtained by fitting raw data to A625 (cpm)=Vmax*(1−([l]/(IC50+[l])))+b, where b is background.

Regarding `CC(C)(CO)CNS(=O)(=O)c1ccc(NC=C2C(=O)Nc3ccc4ncsc4c32)cc1` [Example 77, N-(3-Hydroxy-2,2-dimethyl-propyl)-4-[(7-oxo-6,7-dihydro-1-thia-3,6-diaza-as-indacen-8-ylidenemethyl)-amino]-benzenesulfonamide], the IC50 in the assay with MDA MB468 (setting [2]) was over 5000 nM; in assay [1] (50% cell death), 600 to 1000 nM.
As to `CS(=O)(=O)Cc1ccc(NC=C2C(=O)Nc3ccc4ncsc4c32)cc1` [Example 76, 8-(4-Methylsulfonylmethyl-phenylamino-methylene)-6,8-dihydro-1-thia-3,6-diaza-as-indacen-7-one], the IC50 with MDA MB468 (setting [2]) was over 5000 nM; in assay [1] (50% cell death) it was 1100 to 5000 nM; on VEGFR2, over 100 nM; against Lck it was over 100 nM.
In the case of `O=C1Nc2ccc3ncsc3c2C1=CNc1ccc(S(=O)(=O)Nc2ccccn2)cc1` [Example 72, 4-[(7-Oxo-6,7-dihydro-1-thia-3,6-diaza-as-indacen-8-ylidenemethyl)-amino]-N-pyridin-2-yl-benzenesulfonamide], the IC50 in the assay on MDA MB468 (Homo sapiens, MDA-MB-468, 72 h, read-out: MTT MDA MB468 IC50) is over 5000 nM; in assay [1], over 5000 nM; against VEGFR2, 51 to 100 nM.
On Lck, `CNS(=O)(=O)Cc1ccc(NN=C2C(=O)Nc3ccc4ncccc4c32)cc1` [Example 68, N-Methyl-C-{4-[N′-(2-oxo-2,3-dihydro-pyrrolo[3,2-f]quinolin-1-ylidene)-hydrazino]-phenyl}-methanesulfonamide] had an IC50 of over 100 nM.
With `CNS(=O)(=O)Cc1ccc(NN=C2C(=O)Nc3cc(C)c(O)c(C)c32)cc1` [Example 99], the IC50 in the assay with MDA MB468 (setting [2]) is 100 to 500 nM; in assay [1] (50% cell death), over 5000 nM; against VEGFR2, over 100 nM; against Lck, over 100 nM.

The values are drawn from patent US6541503B2, “Substituted oxindole derivatives as protein tyrosine kinase and as protein serine/threonine kinase inhibitors” (SmithKline Beecham Corporation, priority 1997, dated 2003).
